PubChem BioAssay AID296 (DTP/NCI, 2004)
Where “and” joins values, the source holds several entries; their conditions need not be identical. Identical values can stand only once. Results filed as inconclusive are left out.

System: MX-1 breast xenograft, nude mice, tumor weight T/C
Experiment: NCI In Vivo Anticancer Drug Screen. Data for tumor model Human Mammary Carcinoma MX-1 Xenograft (intrarenal inoculation) in NU/NU Swiss (nude) mice
Conditions: endpoint: mean tumor weight change, higher = larger tumour
How it was run: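 Compound dosed to mice with transplantable tumor; vehicle group as control. Endpoint survival or tumour size, reported as T/C.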

[1] = dose: 150.0 mg/kg/injection, schedule: Q04DX003 (sc), vehicle: saline with Tween-80
[2] = dose: 600.0 mg/kg/injection, schedule: Q04DX003 (sc), vehicle: saline with Tween-80
[3] = dose: 150.0 mg/kg/injection, schedule: Q04DX003 (sc), vehicle: saline

For C#C[C@]1(O)CC[C@H]2[C@@H]3CCc4cc(O)ccc4[C@H]3CC[C@@]21C, the T/C (dose: 150.0 mg/kg/injection, schedule: Q04DX003 (sc), vehicle: Klucel (hydroxypropylcellulose) (HPC)) was 150 % of control, the T/C (dose: 300.0 mg/kg/injection, schedule: Q04DX003 (sc), vehicle: Klucel (hydroxypropylcellulose) (HPC)) was 94 % of control and the T/C (dose: 600.0 mg/kg/injection, schedule: Q04DX003 (sc), vehicle: Klucel (hydroxypropylcellulose) (HPC)) was 80 % of control. The T/C (dose: 1200.0 mg/kg/injection, schedule: Q04DX003 (sc), vehicle: Klucel (hydroxypropylcellulose) (HPC)) was 122 % of control.

N#C[Se-].c1ccc([Te+](c2ccccc2)c2ccccc2)cc1 was tested, and the T/C (dose: 3.75 mg/kg/injection, schedule: Q04DX003 (sc), vehicle: Klucel (hydroxypropylcellulose) (HPC)) was 101 % of control, the T/C (dose: 7.5 mg/kg/injection, schedule: Q04DX003 (sc), vehicle: Klucel (hydroxypropylcellulose) (HPC)) was 118 % of control and the T/C (dose: 30.0 mg/kg/injection, schedule: Q04DX003 (sc), vehicle: Klucel (hydroxypropylcellulose) (HPC)) was 75 % of control.

In the case of CC(=O)O[C@@H]1[C@@H](O)C2=C3[C@]4(C)[C@@H]1C(C)(C)C(=O)C[C@@H]4[C@]3(O)[C@H](OC(C)=O)[C@@]1(C[C@@H]1C)C2=O, the T/C (dose: 12.5 mg/kg/injection, schedule: Q01DX010 (sc), vehicle: saline with Tween-80) is reported as 106 % of control, the T/C (dose: 25.0 mg/kg/injection, schedule: Q01DX010 (sc), vehicle: saline with Tween-80) is reported as 114 % of control and the T/C (dose: 50.0 mg/kg/injection, schedule: Q01DX010 (sc), vehicle: saline with Tween-80) is reported as 319 % of control.

O=C(O)CC(=O)O.[NH-]C1CCCCC1[NH-].[Pt+2] (stereo not drawn) was tested, and the T/C (dose: 20.0 mg/kg/injection, schedule: Q01DX010 (sc), vehicle: dextrose) was 1 % of control and -16 % of control and the T/C (dose: 40.0 mg/kg/injection, schedule: Q01DX010 (sc), vehicle: dextrose) was -81 % of control and -78 % of control.

In the case of COc1cccc2c1C(=O)c1c(O)c3c(c(O)c1C2=O)C[C@@](O)(C(=O)CO)C[C@@H]3OC1CC(N)C(OC)C(C)O1 (stereo partly drawn), the T/C (dose: 1.5 mg/kg/injection, schedule: Q01DX010 (sc), vehicle: saline) is reported as 54 % of control.

For N#CC(=C1C=CC(=NO)C=C1)c1ccc(Cl)cc1, the T/C [1] was 89 % of control, the T/C (dose: 300.0 mg/kg/injection, schedule: Q04DX003 (sc), vehicle: saline with Tween-80) was 122 % of control and the T/C [2] was 156 % of control.

Cc1cc(NCCCCCCCCNc2cc(C)nc3cc(N(C)C)ccc23)c2ccc(N(C)C)cc2n1 was tested, and the T/C (dose: 150.0 mg/kg/injection, schedule: Q04DX003 (sc), vehicle: distilled water + Tween-80 + alcohol) was 67 % of control, the T/C (dose: 300.0 mg/kg/injection, schedule: Q04DX003 (sc), vehicle: distilled water + Tween-80 + alcohol) was 74 % of control and the T/C (dose: 600.0 mg/kg/injection, schedule: Q04DX003 (sc), vehicle: distilled water + Tween-80 + alcohol) was 43 % of control. For the same compound, the T/C (dose: 1200.0 mg/kg/injection, schedule: Q04DX003 (sc), vehicle: distilled water + Tween-80 + alcohol) was 71 % of control.

For COc1cc2cc3c4cc(OC)c(OC)cc4cc[n+]3c(C)c2cc1OC (tested in a mixture with another compound), the T/C (dose: 75.0 mg/kg/injection, schedule: Q04DX003 (sc), vehicle: saline) was 79 % of control and the T/C [3] was 60 % of control.

For N#CN=[N+]([O-])c1ccc(C(=O)O)cc1, the T/C (dose: 11.25 mg/kg/injection, schedule: Q04DX003 (sc), vehicle: Klucel (hydroxypropylcellulose) (HPC)) was 124 % of control, the T/C (dose: 22.5 mg/kg/injection, schedule: Q04DX003 (sc), vehicle: Klucel (hydroxypropylcellulose) (HPC)) was 87 % of control and the T/C (dose: 45.0 mg/kg/injection, schedule: Q04DX003 (sc), vehicle: Klucel (hydroxypropylcellulose) (HPC)) was 103 % of control.

For C[Si](C)(C)n1nnn(-c2ccccc2)c1=O, the T/C (dose: 75.0 mg/kg/injection, schedule: Q04DX003 (sc), vehicle: saline with Tween-80) was 90 % of control, the T/C [1] was 71 % of control and the T/C [2] was 91 % of control.

For O=c1ncccn1[C@@H]1O[C@H](CO)[C@H](O)C1O (stereo partly drawn), the T/C [3] was 114 % of control, the T/C (dose: 300.0 mg/kg/injection, schedule: Q04DX003 (sc), vehicle: saline) was 156 % of control and the T/C (dose: 600.0 mg/kg/injection, schedule: Q04DX003 (sc), vehicle: saline) was 160 % of control. The T/C (dose: 1200.0 mg/kg/injection, schedule: Q04DX003 (sc), vehicle: saline) was 108 % of control.

For Cc1ccc(NN=O)nc1, the T/C (dose: 18.7 mg/kg/injection, schedule: Q04DX003 (ip), vehicle: water) was 16 % of control and the T/C (dose: 37.5 mg/kg/injection, schedule: Q04DX003 (ip), vehicle: water) was 8 % of control.

With CC(C)NC(=O)OCc1c(COC(=O)NC(C)C)c(-c2ccc(Cl)c(Cl)c2)n2c1CCC2 the T/C (dose: 25.0 mg/kg/injection, schedule: Q01DX010 (sc), vehicle: distilled water + Tween-80) was -21 % of control, the T/C (dose: 50.0 mg/kg/injection, schedule: Q01DX010 (sc), vehicle: distilled water + Tween-80) was 16 % of control and the T/C (dose: 150.0 mg/kg/injection, schedule: Q04DX003 (ip), vehicle: saline) was 21 % of control. The T/C (dose: 300.0 mg/kg/injection, schedule: Q04DX003 (ip), vehicle: saline) was 28 % of control.
